The values below are quoted from earlier work in US11260055B2, “Oral pharmaceutical composition of lurasidone and preparation thereof” (PIRAMAL PHARMA LIMITED, priority 2017, dated 2022).

For this series the following is noted: in water.

On to `O=C1[C@@H]2[C@H]3CC[C@H](C3)[C@@H]2C(=O)N1C[C@@H]1CCCC[C@H]1CN1CCN(c2nsc3ccccc23)CC1` [Lurasidone], for which the Solubility result is recorded as “poor water solubility”.
